Assay results taken from patent US20040053915A1, “Use of stimulators of soluble guanylate cyclase for treating osteoporosis” (priority 2000, published 2004).

Test system: rats of the strain HsdCpb:Wu
Experiment: Increased bone formation in rats after 4 weeks of once-daily administration via stomach tube
Format: in vivo
Details: once per day via stomach tube, male and female rats, all test animals
Procedure: For a period of 4 weeks, one of the two compounds listed in Table 1 was administered, in each case in one of the concentrations given in Table 1, once per day via a stomach tube to 10 male and 10 female rats of the strain HsdCpb:Wu. […] Pathological endosteal or periosteal changes were not noticed.

Compound	bone formation in the area of the spongioid bone proximally and distally to the epiphyseal arcus of the great tubular bones (5 mg/kg or more)	bone formation in the area of the spongioid bone proximally and distally to the epiphyseal arcus of the great tubular bones (50 mg/kg or more)
Nc1nc(-c2nn(Cc3ccccc3F)c3ncccc23)nc(N)c1N1CCOCC1 [Compound 2]	increased bone formation	–
Nc1nc(-c2nn(Cc3ccccc3F)c3ncccc23)ncc1C1CC1 [Compound 1]	–	increased bone formation
